This note sets out measurements from patent US20200253211A1, “PHOTODYNAMIC INHIBITION OF MICROBIAL PATHOGENS IN PLANTS” (SUNCOR ENERGY INC, priority 2017, published 2020).

Read-outs that look alike come from different tables or passages of the source.

Common to all, as to type: cell-based
For test [1], the system named is Sclerotinia homoeocarpa. Briefly: Radial growth of dollar spot fungus on amended Potato Dextrose Agar, dark vs light. As to conditions: for inhibition at 500 µM / inhibition at 1000 µM / inhibition at 2000 µM: Clarireedia homoeocarpa.
A further test deals with E. Coli K-12. In words: E. Coli assay under LED lamps, colony count. As to conditions: light. As for the experimental part: Regarding the E. Coli assay tests in the above examples, the following procedure was used: • 1. E. Coli K-12 inoculated in 5 mL TSB and placed in a shaking incubator overnight. • 2. Dilute culture in 500 mL PBS (˜10̂8 CFU/mL) and placed in shaking incubator for 30 minutes at […]. • 3.15 mL samples created using 12 mL culture and a mixture of PBS buffer and sample compounds. • 4. Placed under LED lamps for 2 hours (40 W/m^2). • 5. Samples diluted to 10^−4 and culture controls diluted to 10^−5 for plating through series dilutions. • 6. 0.1 mL plated of each sample in triplicates on TSA base (10^−3 and 10^−4 for samples. 10^−4 and 10^−5 for controls). • 7. Incubated overnight at 37° C. • 8. Colonies counted next morning and recorded.

Test [2] has as its system Sclerotinia homoeocarpa. In words: Radial growth of dollar spot fungus after treatment of plugs in PBS (24 well plates), dark vs light. As to the method: In this example, control of dollar spot fungus (Sclerotinia homoeocarpa) with chlorins combined with a chelating agent was assessed. Treatments were prepared in Phosphate Buffered Saline (PBS) in 24 well plates (in duplicates for light vs. dark incubation) at desired concentrations. Then, a 5 mm diameter plug of a Sclerotinia homoeocarpa isolate (3 isolates total tested) was inoculated into the PBS and incubated at 21° C. in the dark for 2 hours. After 2 hours, one of the 24 well plates (with isolates in triplicate) is left in the dark and one 24 well plate is placed under illumination for 1 hour (all at 21° C.). Following illumination, fungal plugs are removed from PBS, blotted dry on sterile filter paper and transferred to non-amended Potato Dextrose Agar (PDA). Radial growth of the fungus is monitored daily until the growth of S. homoeocarpa reaches the edge of the Petri-dish. Illumination is provided by LED lights emitting about 1000 μmol/m^2/s photosynthetically active radiation (PAR). In this example, control of dollar spot fungus (Sclerotinia homoeocarpa) with Zinc Protoporphyrin IX (Zn-PPIX) combined with EDTA was assessed. Treatments were prepared in Phosphate Buffered Saline (PBS) in 24 well plates (in duplicates for light vs. dark incubation) at desired concentrations. Then, a 5 mm diameter plug of a Sclerotinia homoeocarpa isolate (3 isolates total tested) was inoculated into the PBS and incubated at 21° C. in the dark for 2 hours. After 2 hours, one of the 24 well plates (with isolates in triplicate) is left in the dark and one 24 well plate is placed under illumination for 1 hour (all at 21° C.). Following illumination, fungal plugs are removed from PBS, blotted dry on sterile filter paper and transferred to non-amended Potato Dextrose Agar (PDA). Radial growth of the fungus is monitored daily until the growth of S. homoeocarpa reaches the edge of the Petri-dish. Illumination is provided by LED lights emitting about 1000 μmol/m^2/s photosynthetically active radiation (PAR). In this example, control of dollar spot fungus (Sclerotinia homoeocarpa) with bacteriochlorin combined with EDTA was assessed. Treatments were prepared in Phosphate Buffered Saline (PBS) in 24 well plates (in duplicates for light vs. dark incubation) at desired concentrations. Then, a 5 mm diameter plug of a Sclerotinia homoeocarpa isolate (3 isolates total tested) was inoculated into the PBS and incubated at 21° C. in the dark for 2 hours. After 2 hours, one of the 24 well plates (with isolates in triplicate) is left in the dark and one 24 well plate is placed under illumination for 1 hour (all at 21° C.). Following illumination, fungal plugs are removed from PBS, blotted dry on sterile filter paper and transferred to non-amended Potato Dextrose Agar (PDA). Radial growth of the fungus is monitored daily until the growth of S. homoeocarpa reaches the edge of the Petri-dish. Illumination is provided by LED lights emitting about 1000 μmol/m^2/s photosynthetically active radiation (PAR). In this example, control of dollar spot fungus (Sclerotinia homoeocarpa) with Aluminum chlorin e6 combined with EDTA was assessed. Treatments were prepared in Phosphate Buffered Saline (PBS) in 24 well plates (in duplicates for light vs. dark incubation) at desired concentrations. Then, a 5 mm diameter plug of a Sclerotinia homoeocarpa isolate (3 isolates total tested) was inoculated into the PBS and incubated at 21° C. in the dark for 2 hours. After 2 hours, one of the 24 well plates (with isolates in triplicate) is left in the dark and one 24 well plate is placed under illumination for 1 hour (all at 21° C.). Following illumination, fungal plugs are removed from PBS, blotted dry on sterile filter paper and transferred to non-amended Potato Dextrose Agar (PDA). Radial growth of the fungus is monitored daily until the growth of S. homoeocarpa reaches the edge of the Petri-dish. Illumination is provided by LED lights emitting about 1000 μmol/m^2/s photosynthetically active radiation (PAR). […]

The subject of test [3] is Alternaria solani mycelia. In words: Photodynamic inhibition of Alternaria solani mycelia, percentage of dead samples after 7 days on agar. As to conditions: Table 5. As for the experimental part: In the experiments, Alternaria solani mycelia were grown in liquid medium for 24 hours. Small spheres of the mycelia (average diameter 2 mm) were incubated for 100 minutes with 100 μM of Mg-Chlorophyllin with 0 to 5 mM of Disodium-EDTA. Samples were illuminated with 395 nm (fluence 106.6 J cm^−2) for 120 mins and the radial growth of mycelial patches after 7 days on agar medium was measured. A sample was considered dead, if there was no growth observable after 7 days on agar plates.
In the experiments, Alternaria solani mycelia were grown in liquid medium for 24 hours. Small spheres of the mycelia (average diameter 2 mm) were incubated for 100 minutes with Chlorin E6 with or without 5 mM of disodium-EDTA. Samples were illuminated with 395 nm (fluence 106.6 J cm^−2) for 120 mins and the radial growth of mycelial patches after 7 days on agar medium was measured. A sample was considered dead, if there was no growth observable after 7 days on agar plates.
The protocol for the PDI of A. solani was as follows (for Experiment 2 and 5): • Grow A. solani on tomato-agar for some days. • Transfer parts of the growing mycelium form the edge of the A. solani (no conidia) to liquid tomato medium. • Incubate overnight at 26° C. under constant agitation. • Transfer the grown mycelia (spheres of mycelia, approximately 2 mm in diameter) to 24 well plates. • Add 500 microlitres of the PS to the well (PBS for the Co and light only controls). • Incubate under agitation for 100 minutes. • Illuminate under agitation for 120 minutes. • Transfer the treated mycelia to tomato-agar plates and incubate for one week at room temperature. • Evaluate by counting of dead samples.

In the next test the test system is Botrytis cinerea mycelia. In words: Photodynamic inhibition of Botrytis cinerea mycelia, percentage of dead samples after 7 days on agar. The note with it: Table 4; EDTA-Ca 5 mM alone; with light. As for the experimental part:
In the experiments, Botrytis cinerea mycelia were grown in liquid medium for 48 hours. Small spheres of the mycelia (average diameter 2 mm) were incubated for 100 minutes with Mg-Chlorophyllin with or without 5 mM Disodium-EDTA. Samples were illuminated with 395 nm (fluence 106.6 J cm^−2) for 120 minutes and the radial growth of mycelial patches after 7 days on agar medium was measured. A sample was considered dead, if there was no growth observable after 7 days on agar plates.
In the experiments, Botrytis cinerea mycelia were grown in liquid medium for 48 hours. Small spheres of the mycelia (average diameter 2 mm) were incubated for 100 minutes with Mg-Chlorophyllin with or without 5 mM EDTA (calcium or disodium). Samples were illuminated with 395 nm (fluence 106.6 J cm^−2) for 120 min and the radial growth of mycelial patches after 7 days on agar medium was measured. A sample was considered dead, if there was no growth observable after 7 days on agar plates.
In the experiments, Botrytis cinerea mycelia were grown in liquid medium for 48 hours. Small spheres of the mycelia (average diameter 2 mm) were incubated for 100 minutes with Mg-Chlorophyllin with or without Baypure DS100 Samples were illuminated with 395 nm (fluence 106.6 J cm^−2) for 120 min and the radial growth of mycelial patches after 7 days on agar medium was measured. A sample was considered dead, if there was no growth observable after 7 days on agar plates.
The protocol for the PDI of B. cinerea was as follows (for experiments 3 and 4 described above): • Grow B. cinerea on malt-peptone-agar for some days. • Transfer spores of B. cinerea to liquid malt-peptone medium. • Incubate for 2-3 days at 26° C. under constant agitation. • Transfer the grown mycelia (spheres of mycelia, approximately 2 mm diameter) to 24 well plates. • Add 500 μl of the PS to the well. • Incubate under agitation for 100 minutes in the dark. • Illuminate under agitation for 120 minutes. • Transfer the treated mycelia to malt-peptone-agar plates and incubate for one week at room temperature. • Evaluate by counting of dead samples.

Where [4] appears, read: Table 13, 1 mM Curcumin in 0.25% Tween 80 solution.
The mark [5] stands for this setting: Table 9A, dark, Ca-EDTA 100 μM, no curcumin.
The mark [6] stands for this setting: Table 9B, light, Ca-EDTA 100 μm, no curcumin.

By inhibition is commonly meant the change of the read-out against control, counted positive when it falls. Regarding `O=C(O)CC(NC(CC(=O)O)C(=O)O)C(=O)O` (stereo not shown) [Baypure CX (IDS), tetrasodium iminodisuccinate], in the test on Sclerotinia homoeocarpa [1] (Table 14A, dark, rate 500 μM), testing at 500 µM gave an inhibition of 6.2% and the “Mean Radial Growth” value worked out at 12.7 mm. In the test on Sclerotinia homoeocarpa [1] (Table 14A, dark, rate 1000 μM), the inhibition at 1000 µM was determined as 15.2% and the “Mean Radial Growth” value was 11.4 mm. In addition, in the test on Sclerotinia homoeocarpa [1] (Table 14A, dark, rate 2000 μM), testing at 2000 µM gave an inhibition of 31.3% and the “Mean Radial Growth” value is 9.3 mm. For the same compound, in the test on Sclerotinia homoeocarpa [1] (Table 14B, light, rate 500 μM), testing at 500 µM gave an inhibition of 8.6% and the “Mean Radial Growth” value was found to be 11.8 mm. In the test on Sclerotinia homoeocarpa [1] (Table 14B, light, rate 1000 μM), testing at 1000 µM gave an inhibition of 18% and the “Mean Radial Growth” value is listed as 10.6 mm. In the test with Sclerotinia homoeocarpa [1] (Table 14B, light, rate 2000 μM), the inhibition at 2000 µM worked out at 30.9% and the “Mean Radial Growth” value is reported as 8.9 mm. Also, in the test on E. Coli K-12 (Table 11, 5 mM Baypure CX), the “% Inactivation” value worked out at 67.8%, the CFU/mL amounted to 2.09E+06 CFU/mL and the LogCFU/mL was determined as 6.32 LogCFU/mL.

What is called % Inhibition is the change of the read-out against control, counted positive when it falls. Regarding `C=Cc1c(C)c2cc3nc(c(CC(=O)O)c4[nH]c(cc5nc(cc1[nH]2)C(C)=C5CC)c(C)c4C(=O)O)[C@@H](CCC(=O)O)[C@@H]3C` [Chlorin E6], the “% Inhibition” value in the test on Sclerotinia homoeocarpa [2] (Table 18A, dark, rate 10 μM) is reported as −1.49%; in the test with Sclerotinia homoeocarpa [2] (Table 18A, dark, rate 100 μM) it was 3.48%; with Sclerotinia homoeocarpa [2] (Table 18B, light, rate 10 μM) it was 24.12%; in the test with Sclerotinia homoeocarpa [2] (Table 18B, light, rate 100 μM) it was 11.06%. Moreover, the “Mean Radial Growth” value is 11.33 mm in the test with Sclerotinia homoeocarpa [2] (Table 18A, dark, rate 10 μM); 10.78 mm in the test on Sclerotinia homoeocarpa [2] (Table 18A, dark, rate 100 μM); 8.39 mm in the test on Sclerotinia homoeocarpa [2] (Table 18B, light, rate 10 μM); 9.83 mm in the test with Sclerotinia homoeocarpa [2] (Table 18B, light, rate 100 μM). Further, the dead % in test [3] (light, 1 μM Chlorin E6) is reported as 0.0%; in test [3] (light, 10 μM Chlorin E6) it was 8.3%; in test [3] (light, 100 μM Chlorin E6), 0%; in test [3] (no light, 100 μM Chlorin E6), 0.0%.

For `COc1cc(/C=C/C(=O)CC(=O)/C=C/c2ccc(O)c(OC)c2)ccc1O` [Curcumin], the inhibition at 500 µM with Sclerotinia homoeocarpa [1] (Table 9A, dark, Curcumin 500 μM in 0.25% Tween 80, read-out: % Inhibition) came to 11.4%; in the test on Sclerotinia homoeocarpa [1] (Table 9B, light, Curcumin rate 500 μM in 0.25% Tween 80, read-out: % Inhibition), 8.1%. The inhibition at 1000 µM in the test on Sclerotinia homoeocarpa [1] (Table 9A, dark, Curcumin 1000 μM in 0.25% Tween 80, read-out: % Inhibition) came out at 33%; with Sclerotinia homoeocarpa [1] (Table 9B, light, Curcumin rate 1000 μM in 0.25% Tween 80, read-out: % Inhibition), 28.9%. The “Mean Radial Growth” value with Sclerotinia homoeocarpa [1] (Table 9A, dark, Curcumin 500 μM in 0.25% Tween 80) amounted to 13.1 mm; in the test on Sclerotinia homoeocarpa [1] (Table 9A, dark, Curcumin 1000 μM in 0.25% Tween 80), 9.9 mm; in the test with Sclerotinia homoeocarpa [1] (Table 9B, light, Curcumin rate 500 μM in 0.25% Tween 80), 12.4 mm; in the test with Sclerotinia homoeocarpa [1] (Table 9B, light, Curcumin rate 1000 μM in 0.25% Tween 80), 9.6 mm. For the same compound, in the test on E. Coli K-12 (setting [4]), the “% Inactivation” value came out at 86.0%. The compound also had a CFU/mL with E. Coli K-12 (setting [4]) of 1.24E+06 CFU/mL. Further, in the test with E. Coli K-12 (setting [4]), the LogCFU/mL was found to be 6.09 LogCFU/mL.

As to `O=C([O-])CN(CCN(CC(=O)[O-])CC(=O)[O-])CC(=O)[O-].[Ca+2].[Na+].[Na+]` [EDTA-Ca, calcium disodium EDTA], the “% Inhibition” value with Sclerotinia homoeocarpa [1] (setting [5]) was 80.8%; in the test on Sclerotinia homoeocarpa [1] (setting [6]), 76.5%. In addition, the “Mean Radial Growth” value is listed as 2.8 mm with Sclerotinia homoeocarpa [1] (setting [5]) and 3.2 mm with Sclerotinia homoeocarpa [1] (setting [6]). In addition, the dead % with Botrytis cinerea mycelia came out at 0%.
